Laboratory results reported in ChEMBL document CHEMBL1145763, “Design, synthesis and photochemical properties of caged bile acids” (Bioorg Med Chem Lett, 2003).
≈ marks a conversion by molar mass, not a printed value.

Assay: Solubility in 100 mM Tris pH(8.5)/ 30% PEG 6000/200 mM NaOAc
Format: physicochemical

| solubility | SMILES |
| --- | --- |
| 1000 µM (≈ 604 µg/mL) | COc1cc(CO[C@@H]2CC[C@@]3(C)C(C2)C[C@@H](O)[C@H]2[C@@H]4CC[C@H]([C@H](C)CCC(=O)O)[C@@]4(C)[C@@H](O)C[C@@H]23)c([N+](=O)[O-])cc1OC (some centres undefined) |
| 4000 µM (≈ 2340 µg/mL) | C[C@H](CCC(=O)NCC(=O)O)[C@H]1CC[C@H]2[C@@H]3[C@H](O)CC4C[C@H](OCc5ccccc5[N+](=O)[O-])CC[C@]4(C)[C@H]3CC[C@]12C (some centres undefined) |
| 5000 µM (≈ 2640 µg/mL) | C[C@H](CCC(=O)O)[C@H]1CC[C@H]2[C@@H]3[C@H](O)CC4C[C@H](OCc5ccccc5[N+](=O)[O-])CC[C@]4(C)[C@H]3CC[C@]12C (some centres undefined) |
| 2000 µM (≈ 1090 µg/mL) | C[C@H](CCC(=O)O)[C@H]1CC[C@H]2[C@@H]3[C@H](O)CC4C[C@H](OCc5ccccc5[N+](=O)[O-])CC[C@]4(C)[C@H]3C[C@H](O)[C@]12C (some centres undefined) |
